Results as given in article PMC9599717, “The Multicellular Effects of VDAC1 N-Terminal-Derived Peptide” (Biomolecules, 2022).
pIC50: −log10 of the molar value.

System: HeLa (human cervix adenocarcinoma)
Experiment: Cell death by PI staining and flow cytometry (FACS), HeLa
Format: cell-based
Conditions: HeLa cells
Procedure: MEC-1 cells were incubated in a serum-free medium with various concentrations of VDAC1-based peptides for 1.5 h at room temperature (RT), collected by centrifugation, washed with phosphate-buffered saline (PBS), and analyzed for cell death. Adherent cancer cells were seeded in culture plates and allowed to adhere overnight in a sterile cell culture incubation chamber maintained at 37 °C and 5% CO2. The next day, media was removed from the plates, and cells were treated with various concentrations of VDAC1-based peptides for the indicated time in serum-free Dulbecco’s Modified Eagle Medium (DMEM) with and without DMSO (final 0.15%) as a control for 6 h at 37 °C and 5% CO2. Cells were trypsinized, centrifuged (1500× g, 5 min), and washed with PBS.
Cell death was analyzed by the propidium iodide (PI) staining, followed by flow cytometry with the iCyt sy3200 Benchtop Cell Sorter/Analyzer and analysis with EC800 v 1.3.7 software (Sony Biotechnology Inc., San Jose, CA, USA). Apoptosis was analyzed by PI and annexin V-FITC staining, which was carried out according to the manufacturer’s instructions with minor modifications. […] Next, cells were washed and PI (6.25 μg/mL), was added immediately before flow cytometry At least 10,000 events were collected, recorded on a dot plot, and analyzed by flow cytometry. […]

Q: With “19-FTKGYGFGL-26- RQIKIWFQNRRMKWKK [D-Δ(1-18)N-Ter-Antp]” as the substance, how does the “Maximal cell death (at the concentration for maximal cell death)” value (6 h) read?
A: The value was 100%.

Q: And the pIC50 (6 h incubation, serum-free medium, PI staining and FACS, read-out: IC50, peptide concentration required for half-maximal cell death activity)?
A: The pIC50 was 5.70.
